Reference: patent US8609667B2, “E-type phenyl acrylic ester compounds containing substituted anilino pyrimidine group and uses thereof” (Sinochem Corporation, priority 2009, dated 2013)
Where two headings read alike, the source gives them in different places.

What was measured:
Assay type in all cases: in vivo
[1] = tested on: adults of Tetranychus cinnabarinus; assay: Acaricidal activity against adults in greenhouse (spray on broadbean shoots, mortality after 72 hrs); settings: for mortality at 0.625 µg/mL / mortality at 1.25 µg/mL / mortality at 2.5 µg/mL / mortality at 5 µg/mL / mortality at 10 µg/mL / mortality at 40 µg/mL: Tetranychus cinnabarinus, read-out: mortalities of adults of Tetranychus cinnabarinus (%); for control against adults of Tetranychus cinnabarinus: spray, 72 hrs
Description: (§1) The activity determinations of compounds of the present invention against adults, nymphs and eggs of Tetranychus cinnabarinus were carried out in greenhouse by the following procedures:
The activity determination against adults in greenhouse: the compounds were weighed and dissolved in acetone to obtain mother liquid, and then the mother liquid was diluted to required concentration with placed running water containing 0.1% of Tween 80. Broadbean shoots with two true leaves were used to inoculate adults of Tetranychus cinnabarinus which were counted, spraying treatment was performed by portable sprayer (DeVilbiss Atomizer M163), 3 replicates were set for each treatment. After treatment the broadbean shoots were maintained in standard observation room. Scores were conducted and mortalities were calculated after 72 hrs.

[2] = tested on: eggs of Tetranychus cinnabarinus; assay: Activity against eggs in greenhouse (hatching inhibition rate); settings: for inhibition at 0.625 µg/mL / inhibition at 2.5 µg/mL / inhibition at 10 µg/mL: Tetranychus cinnabarinus, read-out: hatching inhibition rate against eggs (%); for hatching inhibition rate against eggs of Tetranychus cinnabarinus: dose 10 mg/L
Description: as §1
The activity determination against eggs in greenhouse: Broadbean shoots in pot with one true leaf retained were taken, ten healthy female adults of Tetranychus cinnabarinus were inoculated to the leaves, the adults were removed after 24 hrs and the eggs were counted and then sprayed. The treatment of test compounds and spaying method were the same as that of the activity determination in greenhouse against adults. Once eggs of blank control were all hatched after 5 days, unhatched eggs in each treatment were investigated and the hatching inhibition rate were calculated.

citrus red mite = assay: Field trial against citrus red mite (Guilin, China); settings: 48 mg/L (24% SC)
Description: Field Trial Against Citrus Red Mite (Guilin, China)
The trial was carried out in a 2-year-old Shatang orange orchard in Chaotian town lingchuan county guilin city, trifoliate orange trees were selected as stocks, the intervals between two plants was 1.5×2.5 m, the average height was 1.45 m and the crown width was 1.30 m. Two trees were selected in each plot, with random arrangement and 4 replications. Compound 9 (15% SC) was set at two different doses (100 mg/L and 25 mg/L), and spirodiclofen (24% SC) was set at one dose (48 mg/L). Matabi Supergreen 16 Knapsack Sprayer 16 Liter was used to spray evenly with 2 L of spaying volume for each plant. The plants were treated once on 30 Oct. 2009, at that time, adults, nymphs and eggs of citrus red mite all existed, with adults/eggs=1/1.27. During the day the plants were treated, and the weather was good with the average temperature at 23° C. The first three days after treatment were all clear days. The number of mites was investigated before treatment and on the 1st, 3rd, 10th, 15th, 20th and 30th day after treatment respectively. Two trees of each plot were investigated according to the five directions of the tree crown (east, south, west, north and central), 5 leaves in each direction were investigated to calculate the number of living mites, with 50 leaves each plot. The decline rate of mite population and corrected efficacy were calculated according to formulas below: The decline rate of mite population(%)=[(the average number of mite on each leaf before treatment−the average number of mite on each leaf after treatment)/the average number of mite on each leaf before treatment]×100. Corrected efficacy(%)=[(the decline rate of mite population in treated area−the decline rate of mite population in untreated area)/(100−the decline rate of mite population in untreated area)]×100.

[3] = tested on: nymphs of Tetranychus cinnabarinus; assay: Acaricidal activity against nymphs in greenhouse (spray, mortality after 72 hrs)
Description: as §1
The activity determination against nymphs in greenhouse: broadbean shoots with two true leaves in pot were taken, ten healthy female adults of Tetranychus cinnabarinus were inoculated to the leaves, the adults were removed after 24 hrs and the eggs were cultivated into nymphs after 7-10 days. The nymphs were counted and then sprayed. 3 replicates were set for each treatment. And then were maintained in standard observation room. Scores were conducted and mortalities were calculated after 72 hrs.

## CO/C=C(/C(=O)OC)c1ccccc1COc1cc(C(F)(F)F)nc(Nc2ccccc2)n1 [Contrast A, reference compound]
[1]; 0.625 mg/L, Table 7
  mortality at 0.625 µg/mL: 0%
[1]; 1.25 mg/L, Table 7
  mortality at 1.25 µg/mL: 10%
[1]; 2.5 mg/L, Table 7
  mortality at 2.5 µg/mL: 30%
[1]; 5 mg/L, Table 7
  mortality at 5 µg/mL: 60%
[1]; 10 mg/L, Table 7
  mortality at 10 µg/mL: 90%
[1]; 40 mg/L, Table 7
  mortality at 40 µg/mL: 100%
[2]; 0.625 mg/L, Table 8
  inhibition at 0.625 µg/mL: 0%
[2]; 2.5 mg/L, Table 8
  inhibition at 2.5 µg/mL: 10%
[2]; 10 mg/L, Table 8
  inhibition at 10 µg/mL: 100%

## CO/C=C(/C(=O)OC)c1ccccc1COc1cc(C(F)(F)F)nc(Nc2cccc(C)c2)n1 [Compound 6]
[1]; dose 40 mg/L
  control against adults of Tetranychus cinnabarinus: 100%
[1]; dose 100 mg/L
  control against adults of Tetranychus cinnabarinus: 100%

## CO/C=C(/C(=O)OC)c1ccccc1COc1cc(C(F)(F)F)nc(N(C)C)n1 [Contrast B, reference compound]
[1]; 10 mg/L, Table 7
  mortality at 10 µg/mL: 0%
[1]; 40 mg/L, Table 7
  mortality at 40 µg/mL: 0%

## CCC(C)(C)C(=O)OC1=C(c2ccc(Cl)cc2Cl)C(=O)OC12CCCCC2 [Spirodiclofen, reference compound]
Citrus red mite; the 1st day after treatment
  Corrected efficacy (%): 59%
Citrus red mite; the 3rd day after treatment
  Corrected efficacy (%): 72%
Citrus red mite; the 10th day after treatment
  Corrected efficacy (%): 75%
Citrus red mite; the 15th day after treatment
  Corrected efficacy (%): 76%
Citrus red mite; the 20th day after treatment
  Corrected efficacy (%): 83%
Citrus red mite; the 30th day after treatment
  Corrected efficacy (%): 82%
[2]; 0.625 mg/L, Table 8
  hatching inhibition rate against eggs (%): 0%
[2]; 2.5 mg/L, Table 8
  hatching inhibition rate against eggs (%): 70%
[2]; 10 mg/L, Table 8
  hatching inhibition rate against eggs (%): 100%

## CO/C=C(/C(=O)OC)c1ccccc1COc1nc(Nc2ccccc2)nc(C(F)(F)F)c1Cl [Compound 85]
[1]; dose 100 mg/L
  control against adults of Tetranychus cinnabarinus: 100%

## CO/C=C(/C(=O)OC)c1ccccc1COc1nc(Nc2ccc(Cl)cc2)nc(C(F)(F)F)c1C [Compound 83]
[1]; dose 100 mg/L
  control against adults of Tetranychus cinnabarinus: 100%

## CO/C=C(/C(=O)OC)c1ccccc1COc1nc(Nc2ccccc2)nc(C(F)(F)F)c1C [Compound 84]
[1]; dose 100 mg/L
  control against adults of Tetranychus cinnabarinus: 100%

## CO/C=C(/C(=O)OC)c1ccccc1COc1cc(C(F)(F)F)nc(Nc2cccc(Cl)c2Cl)n1 [Contrast C]
[2]; 0.625 mg/L, Table 8
  inhibition at 0.625 µg/mL: 0%
[2]; 2.5 mg/L, Table 8
  inhibition at 2.5 µg/mL: 10%
[2]; 10 mg/L, Table 8
  inhibition at 10 µg/mL: 100%

## CO/C=C(/C(=O)OC)c1ccccc1COc1cc(C(F)(F)F)nc(Nc2ccc(Cl)c(C)c2Cl)n1 [Compound 17]
[1]; dose 5 mg/L
  control against adults of Tetranychus cinnabarinus: 100%
[1]; dose 10 mg/L
  control against adults of Tetranychus cinnabarinus: 100%
[1]; dose 40 mg/L
  control against adults of Tetranychus cinnabarinus: 100%
[1]; dose 100 mg/L
  control against adults of Tetranychus cinnabarinus: 100%

## CO/C=C(/C(=O)OC)c1ccccc1COc1nc(Nc2ccc(F)c(F)c2F)nc(C(F)(F)F)c1C [Compound 80]
[1]; dose 40 mg/L
  control against adults of Tetranychus cinnabarinus: 100%
[1]; dose 100 mg/L
  control against adults of Tetranychus cinnabarinus: 100%

## CO/C=C(/C(=O)OC)c1ccccc1COc1nc(Nc2ccc(F)cc2F)nc(C(F)(F)F)c1C [Compound 79]
[1]; dose 10 mg/L
  control against adults of Tetranychus cinnabarinus: 100%
[1]; dose 40 mg/L
  control against adults of Tetranychus cinnabarinus: 100%
[1]; dose 100 mg/L
  control against adults of Tetranychus cinnabarinus: 100%

## CO/C=C(/C(=O)OC)c1ccccc1COc1cc(C(F)(F)F)nc(OC(C)C)n1 [Fluacrypyrim, reference compound]
[1]
  mortality at 0.625 µg/mL: 0%
  mortality at 1.25 µg/mL: 30%
  mortality at 2.5 µg/mL: 65%
  mortality at 5 µg/mL: 95%
  mortality at 10 µg/mL: 100%
  mortality at 40 µg/mL: 100%
[2]
  inhibition at 0.625 µg/mL: 0%
  inhibition at 2.5 µg/mL: 10%
  inhibition at 10 µg/mL: 95%

## CO/C=C(/C(=O)OC)c1ccccc1COc1cc(C(F)(F)F)nc(Nc2ccc(F)c(Cl)c2)n1 [Compound 13]
[1]; dose 100 mg/L
  control against adults of Tetranychus cinnabarinus: 100%

## CO/C=C(/C(=O)OC)c1ccccc1COc1cc(C(F)(F)F)nc(Nc2cc(Cl)ccc2Cl)n1 [Compound 18]
[1]; dose 40 mg/L
  control against adults of Tetranychus cinnabarinus: 100%
[1]; dose 100 mg/L
  control against adults of Tetranychus cinnabarinus: 100%

## CO/C=C(/C(=O)OC)c1ccccc1COc1cc(C(F)(F)F)nc(Nc2ccc(F)c(F)c2F)n1 [Compound 15]
[3]; dose 0.63 mg/L
  control against nymphs of Tetranychus cinnabarinus: 100%
[3]; dose 2.5 mg/L
  control against nymphs of Tetranychus cinnabarinus: 100%
[1]; dose 0.31 mg/L
  control against adults of Tetranychus cinnabarinus: more than 75%
[1]; dose 0.625 mg/L
  control against adults of Tetranychus cinnabarinus: 95%
[1]; dose 5 mg/L
  control against adults of Tetranychus cinnabarinus: 100%
[1]; dose 10 mg/L
  control against adults of Tetranychus cinnabarinus: 100%
[1]; dose 40 mg/L
  control against adults of Tetranychus cinnabarinus: 100%
[1]; dose 100 mg/L
  control against adults of Tetranychus cinnabarinus: 100%
[2]
  hatching inhibition rate against eggs of Tetranychus cinnabarinus: 100%

## CO/C=C(/C(=O)OC)c1ccccc1COc1cc(C(F)(F)F)nc(Nc2ccc(Cl)cc2F)n1 [Compound 12]
[1]; dose 5 mg/L
  control against adults of Tetranychus cinnabarinus: 100%
[1]; dose 10 mg/L
  control against adults of Tetranychus cinnabarinus: 100%
[1]; dose 40 mg/L
  control against adults of Tetranychus cinnabarinus: 100%
[1]; dose 100 mg/L
  control against adults of Tetranychus cinnabarinus: 100%

## CO/C=C(/C(=O)OC)c1ccccc1COc1cc(C(F)(F)F)nc(Nc2ccc(F)cc2F)n1 [Compound 8]
[3]; dose 0.63 mg/L
  control against nymphs of Tetranychus cinnabarinus: more than 75%
[3]; dose 2.5 mg/L
  control against nymphs of Tetranychus cinnabarinus: more than 95%
[1]; dose 5 mg/L
  control against adults of Tetranychus cinnabarinus: 100%
[1]; dose 10 mg/L
  control against adults of Tetranychus cinnabarinus: 100%
[1]; dose 40 mg/L
  control against adults of Tetranychus cinnabarinus: 100%
[1]; dose 100 mg/L
  control against adults of Tetranychus cinnabarinus: 100%
[2]; 0.625 mg/L, Table 8
  hatching inhibition rate against eggs (%): 25%
[2]; 2.5 mg/L, Table 8
  hatching inhibition rate against eggs (%): 90%
[2]; 10 mg/L, Table 8
  hatching inhibition rate against eggs (%): 100%
[2]
  hatching inhibition rate against eggs of Tetranychus cinnabarinus: 100%

## CO/C=C(/C(=O)OC)c1ccccc1COc1nc(Nc2ccccc2Cl)nc(C(F)(F)F)c1C [Compound 82]
[1]; dose 100 mg/L
  control against adults of Tetranychus cinnabarinus: 100%

## CO/C=C(/C(=O)OC)c1ccccc1COc1cc(C(F)(F)F)nc(Nc2ccccc2F)n1 [Compound 2]
[1]; dose 10 mg/L
  control against adults of Tetranychus cinnabarinus: 100%
[1]; dose 40 mg/L
  control against adults of Tetranychus cinnabarinus: 100%
[1]; dose 100 mg/L
  control against adults of Tetranychus cinnabarinus: 100%

## CO/C=C(/C(=O)OC)c1ccccc1COc1cc(C(F)(F)F)nc(Nc2ccc(Cl)c(Cl)c2Cl)n1 [Compound 16]
[1]; dose 5 mg/L
  control against adults of Tetranychus cinnabarinus: 100%
[1]; dose 10 mg/L
  control against adults of Tetranychus cinnabarinus: 100%
[1]; dose 40 mg/L
  control against adults of Tetranychus cinnabarinus: 100%
[1]; dose 100 mg/L
  control against adults of Tetranychus cinnabarinus: 100%
[2]
  hatching inhibition rate against eggs of Tetranychus cinnabarinus: 100%
